Data from US8178535B2, “Substituted sulfonamide compounds having bradykinin 1 receptor activity and use thereof as medicaments” (Gruenenthal GmbH, priority 2008, dated 2012).

Experiments:
[1] = molecular target: T1, human B1R receptor (hB1R) (Homo sapiens, UniProt P46663); assay: FLIPR Ca2+ assay (Fluo-4) on CHO K1 cells stably transfected with the human B1R gene; assay type: cell-based; conditions: CHO-K1; test substance 10 μM; agonist Lys-Des-Arg9-bradykinin 0.5 nM; % inhibition compared to the maximum achievable inhibition
T1 construct: host or cells: CHO K1 cells
T1 sequence (P46663 1-353): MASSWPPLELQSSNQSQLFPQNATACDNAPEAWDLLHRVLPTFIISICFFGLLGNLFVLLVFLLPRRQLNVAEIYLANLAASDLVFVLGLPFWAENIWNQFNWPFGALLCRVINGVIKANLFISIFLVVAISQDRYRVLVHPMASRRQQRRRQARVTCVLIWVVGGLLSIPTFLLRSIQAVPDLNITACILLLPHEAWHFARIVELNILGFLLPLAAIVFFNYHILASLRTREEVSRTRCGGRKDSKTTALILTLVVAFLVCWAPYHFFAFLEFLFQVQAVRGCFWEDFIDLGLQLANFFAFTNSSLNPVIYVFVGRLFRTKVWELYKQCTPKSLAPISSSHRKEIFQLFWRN
How it was run: (§1)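 CHO K1 cells stably expressing human or rat B1R, Fluo-4 loaded, read by FLIPR (Ex 488/Em 540, peak fluorescence). Compound at 10 μM gives % activation vs agonist. After 10 min, agonist added (human: Lys-Des-Arg9-bradykinin 0.5 nM; rat: Des-Arg9-bradykinin 100 nM); % inhibition relative to maximal achievable inhibition.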

[2] = molecular target: T2, B1R receptor of rats (rB1R) (Rattus norvegicus, UniProt P97583); assay: FLIPR Ca2+ assay (Fluo-4) on CHO K1 cells stably transfected with the B1R gene of rats; assay type: cell-based; conditions: CHO-K1; test substance 10 μM; agonist Des-Arg9-bradykinin 100 nM; % inhibition compared to the maximum achievable inhibition
T2 construct: host or cells: CHO K1 cells
T2 sequence (P97583 1-337): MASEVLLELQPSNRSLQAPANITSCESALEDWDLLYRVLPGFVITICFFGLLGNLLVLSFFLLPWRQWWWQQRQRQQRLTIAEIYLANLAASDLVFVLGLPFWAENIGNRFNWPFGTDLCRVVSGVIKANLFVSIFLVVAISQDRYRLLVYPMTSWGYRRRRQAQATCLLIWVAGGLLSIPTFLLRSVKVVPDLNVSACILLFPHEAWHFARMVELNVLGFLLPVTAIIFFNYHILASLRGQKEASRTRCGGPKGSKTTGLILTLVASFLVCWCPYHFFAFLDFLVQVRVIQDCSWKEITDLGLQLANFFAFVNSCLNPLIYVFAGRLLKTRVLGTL
How it was run: as §1

| Compound | inhibition at 10 µM [1] | inhibition at 10 µM [2] |
| --- | --- | --- |
| COc1cc(C)c(S(=O)(=O)N2CCCCC2COCC(=O)N2CCn3c(CN4CCOCC4)ccc3C2c2ccccc2)c(C)c1 (centres unmarked) [(64), 2-((1-(4-methoxy-2,6-dimethylphenylsulfonyl)piperidin-2-yl)methoxy)-1-(6-(morpholinomethyl)-1-phenyl-3,4-dihydropyrrolo[1,2-a]pyrazin-2(1H)-yl)ethanone] | 103% | 102% |
| O=C(COCC1CCc2ccccc2N1S(=O)(=O)c1ccc(Cl)c(Cl)c1)N1CCn2c(CN3CCCC3)ccc2C1 (centres unmarked) [(10), 2-((1-(3,4-dichlorophenylsulfonyl)-1,2,3,4-tetrahydroquinolin-2-yl)methoxy)-1-(6-(pyrrolidin-1-ylmethyl)-3,4-dihydropyrrolo[1,2-a]pyrazin-2(1H)-yl)ethanone] | 101% | 91% |
| Cc1cc(S(=O)(=O)N2CCCCC2CCC(=O)N2CCn3c(CN4CCCC4)ccc3C2)c(C)cc1Cl (centres unmarked) [(9), 3-(1-(4-chloro-2,5-dimethylphenylsulfonyl)piperidin-2-yl)-1-(6-(pyrrolidin-1-ylmethyl)-3,4-dihydropyrrolo[1,2-a]pyrazin-2(1H)-yl)propan-1-one] | 104% | 48% |
| CN1CCN(CCCc2ccc3n2CCN(C(=O)CC2CCCCN2S(=O)(=O)c2cccc(C(F)(F)F)c2)C3)CC1 (centres unmarked) [(15), 1-(6-(3-(4-methylpiperazin-1-yl)propyl)-3,4-dihydropyrrolo[1,2-a]pyrazin-2(1H)-yl)-2-(1-(3-(trifluoromethyl)phenylsulfonyl)piperidin-2-yl)ethanone] | 46% | 100% |
| Cc1cc(C)c(S(=O)(=O)N2CCCCC2COCC(=O)N2CCn3c(CN(C)C)ccc3C2c2ccccc2)c(C)c1 (centres unmarked) [(46), 1-(6-((dimethylamino)methyl)-1-phenyl-3,4-dihydropyrrolo[1,2-a]pyrazin-2(1H)-yl)-2-((1-(mesitylsulfonyl)piperidin-2-yl)methoxy)ethanone] | 102% | 102% |
| COc1cc(C)c(S(=O)(=O)N2CCCCC2COCC(=O)N2CCn3c(CN(C)C)ccc3C2c2ccccc2)c(C)c1 (centres unmarked) [(61), 1-(6-((dimethylamino)methyl)-1-phenyl-3,4-dihydropyrrolo[1,2-a]pyrazin-2(1H)-yl)-2-((1-(4-methoxy-2,6-dimethylphenylsulfonyl)piperidin-2-yl)methoxy)ethanone] | 102% | 101% |
| COc1cc(C)c(S(=O)(=O)N2CCCCC2COCC(=O)N2CCn3cccc3C2c2ccc(C(F)(F)F)cc2F)c(C)c1 (centres unmarked) [(32), 1-(1-(2-fluoro-4-(trifluoromethyl)phenyl)-3,4-dihydropyrrolo[1,2-a]pyrazin-2(1H)-yl)-2-((1-(4-methoxy-2,6-dimethylphenylsulfonyl)piperidin-2-yl)methoxy)ethanone] | 61% | 99% |

Further lines, results first:

| inhibition at 10 µM [1] | inhibition at 10 µM [2] | Compound |
| --- | --- | --- |
| 97% | 100% | COc1cc(C)c(S(=O)(=O)N2CCCCC2CCC(=O)N2CCn3c(Cc4cccnc4)ccc3C2)c(C)c1 (centres unmarked) [(113), 3-(1-(4-Methoxy-2,6-dimethylphenylsulfonyl)piperidin-2-yl)-1-(6-(pyridin-3-ylmethyl)-3,4-dihydropyrrolo[1,2-a]pyrazin-2(1H)-yl)propan-1-one] |
| 86% | 98% | COc1cc(C)c(S(=O)(=O)N2CCCCC2COCC(=O)N2CCn3cccc3C2c2ccc(F)c(F)c2)c(C)c1 (centres unmarked) [(26), 1-(1-(3,4-difluorophenyl)-3,4-dihydropyrrolo[1,2-a]pyrazin-2(1H)-yl)-2-((1-(4-methoxy-2,6-dimethylphenylsulfonyl)piperidin-2-yl)methoxy)ethanone] |
| 85% | 101% | COc1cc(C)c(S(=O)(=O)N2CCCCC2CCCC(=O)N2CCn3cc(-c4ccncc4)nc3C2)c(C)c1 (centres unmarked) [(100), 4-(1-(4-Methoxy-2,6-dimethylphenylsulfonyl)piperidin-2-yl)-1-(2-(pyridin-4-yl)-5,6-dihydroimidazo[1,2-a]pyrazin-7(8H)-yl)butan-1-one] |
| 101% | 98% | COc1ccc(C2c3cccn3CCN2C(=O)COCC2CCCCN2S(=O)(=O)c2c(C)cc(OC)cc2C)cc1 (centres unmarked) [(24), 2-((1-(4-methoxy-2,6-dimethylphenylsulfonyl)piperidin-2-yl)methoxy)-1-(1-(4-methoxyphenyl)-3,4-dihydropyrrolo[1,2-a]pyrazin-2(1H)-yl)ethanone] |
| 58% | 98% | COc1cc(C)c(S(=O)(=O)N2CCCCC2COCC(=O)N2CCn3cccc3C2c2cccc(C(F)(F)F)c2)c(C)c1 (centres unmarked) [(30), 2-((1-(4-methoxy-2,6-dimethylphenylsulfonyl)piperidin-2-yl)methoxy)-1-(1-(3-(trifluoromethyl)phenyl)-3,4-dihydropyrrolo[1,2-a]pyrazin-2(1H)-yl)ethanone] |
| 101% | 99% | COc1cc(C)c(S(=O)(=O)N2CCCCC2COCC(=O)N2CCn3cccc3C2C)c(C)c1 (centres unmarked) [(20), 2-((1-(4-methoxy-2,6-dimethylphenylsulfonyl)piperidin-2-yl)methoxy)-1-(1-methyl-3,4-dihydropyrrolo[1,2-a]pyrazin-2(1H)-yl)ethanone] |
| 102% | 101% | COc1cc(C)c(S(=O)(=O)N2CCCCC2COCC(=O)N2CCn3c(CN(C)C)ccc3C2CCc2ccccc2)c(C)c1 (centres unmarked) [(66), 1-(6-((dimethylamino)methyl)-1-phenethyl-3,4-dihydropyrrolo[1,2-a]pyrazin-2(1H)-yl)-2-((1-(4-methoxy-2,6-dimethylphenylsulfonyl)piperidin-2-yl)methoxy)ethanone] |
| 102% | 103% | COc1cc(C)c(S(=O)(=O)N2CCCCC2COCC(=O)N2CCn3c(CN(C)C)ccc3C2c2cccs2)c(C)c1 (centres unmarked) [(68), 1-(6-((dimethylamino)methyl)-1-(thiophen-2-yl)-3,4-dihydropyrrolo[1,2-a]pyrazin-2(1H)-yl)-2-((1-(4-methoxy-2,6-dimethylphenylsulfonyl)piperidin-2-yl)methoxy)ethanone] |
| 82% | 98% | COc1cc(C)c(S(=O)(=O)N2CCCCC2CCC(=O)N2CCn3cc(CCc4ccncc4)nc3C2)c(C)c1 (centres unmarked) [(117), 3-(1-(4-Methoxy-2,6-dimethylphenylsulfonyl)piperidin-2-yl)-1-(2-(2-(pyridin-4-yl)ethyl)-5,6-dihydroimidazo[1,2-a]pyrazin-7(8H)-yl)propan-1-one] |
